Experimental data: US11583570B2, “Use of autoinducer-related pathway in inducing apoptosis and anti-infective therapy” (TSINGHUA UNIVERSITY, priority 2017, dated 2023)

What was measured:
[1] = system: primary T cell and T cell line; assay: T cell activation (IL-2 release, CD69 expression); format: cell-based, mouse; conditions: induced by MHC class I and class II-restricted antigens or PMA plus ionophore
Procedure: (§1) Cell apoptosis was detected with Annexin V/PI apoptosis detection Kit. Briefly, cells were stimulated with HSLs or left untreated. 6 hrs later, cells were collected and stained with Annexin VFITC and PI for 15 min at RT, then the apoptotic effect was measured by flow cytometry. OT-I or OT-II splenocytes were pulsed with specific peptides or PMA and ionomycin mixture with or without HSLs or TNF α plus cycloheximide. 24 hrs later, cells and supernatants were collected separately. For OT-I activation, cells were stained with CD69 and CD8. For OT-II activation, cells were stained with CD69 and CD4. Cell activation was measured by flow cytometry. All supernatants were detected for IL-2 secretion by ELISA.

caspases 8 and 3 [2] = assay: Caspase 8 and 3 cleavage in human cells (Western blot); format: cell-based; conditions: human (FIGS. 3a and b)
THP-1 cell line = assay: Annexin V/PI apoptosis detection, THP-1; format: cell-based, human; conditions: THP-1
Procedure: as §1
In order to verify TNFR1-FADD-caspase8-caspase3 pathway inhibitor can block immunocyte apoptosis caused by 3OC12-HSL clinically. The inventors use a clinical version of caspase inhibitor Emricasan as a test. […] To be specific, in a 12 plate, THP-1 cells were cultured with indicated concentrations of 3OC and Emricasan. After 1 hr, cells were collection for flow cytometric analysis of AnnexinV and PI. […] In FIG. 17b, live cell percentage of different treatment were enumerated by flow cytometry. Bar graphs of live cell percentage are depicted by mean±SEM. Then samples prepared as in FIG. 17a and FIG. 17b were used for WB analysis for the activation (cleavage) of Caspase 8 and 3. […]

ZAP70 = ZAP70 phosphorylation in live cells recovered from T cell culture; format: cell-based; conditions: live cells recovered from the culture
[3] = Atomic force microscopy of reconstituted lipid domains; format: physicochemical
Procedure: […] The dried lipid film was resuspended with 4 mM HEPES buffer (with 150 mM NaCl) to produce SUV. Vesicle solution (100 μl) was added to freshly cleaved mica clamped in a fluid cell on the AFM heater head. After incubation at 55° C. for 30 min and then kept at RT for another 30 min, the bilayers were rinsed extensively with HEPES buffer to remove excess vesicles.
AFM images were obtained at RT on a NanoScope V Multimode Scanning Probe Microscope (Digital Instrument, Veeco, Santa Barbara, Calif., USA) in the tapping mode using V shape Si3N4 tips (model DNL-10) with spring constants of ˜0.35 N/m and resonance frequencies between 8 and 10 kHz in aqueous solutions. All experiments were conducted in Hepes buffer using a commercially available fluid cell, sealed by an O-ring. A J scanner (125 μm×125 μm) was used with a scan rate between 0.8 and 2 Hz per line.

caspases 8 and 3 [4] = assay: Caspase 8 and 3 cleavage in CD4 T cells (Western blot), mouse; format: cell-based; conditions: mouse (FIG. 2d)
Lipid binding assay = format: physicochemical; conditions: DOPC, DPPC, PE, cholesterol, sphingomyelin individually or in combination
Procedure: 1 mg/ml of each lipid species in chloroform was coated on round glass slides by evaporation.
Then the glass slices were incubated with 100 μM 3OC12 HSL in DMSO in PBS at 37° C. After the incubation, the glass slices were washed slightly with PBS for 4-5 times and lipids were dissolved with DMSO. The amount of 3OC12 HSL in each sample was measured by QS bioassay as described above.

Fcγ RIIA = assay: Quantum dot-based single particle tracking, Fcγ RIIA in Cos-1 cells; format: cell-based, human
Procedure: To track individual TNFR1 on the cell membrane, anti-TNFR1 IgG (was first papain digested to yield a Fab fragment. The Fab was then conjugated with biotin through the unique —SH at its C terminal. To prepare anti TNFR1 Fab QD conjugates, a solution of 0.7 nM anti TNFR1—Fab-biotin in 1 ml of DMEM was added drop-wise to 1 ml of 2 nM QD 605-streptavidin conjugate. Cell monolayers (50% confluent) previously serum starved for 1 hr were treated with 3OC12 HSL or left untreated and incubated with […] of the final anti TNFR1-Fab-QD solution at 25° C. for 2 min. The cells were then washed twice with PBS at 25° C., placed in serum-free medium, and loaded for imaging. For single-FcRγIIA tracking, Fc fragment was obtained by papain digestion of an anti-BSA IgG (Sigma Aldrich). Fc-QD conjugate was produced as described before. Cos-1 cells were transiently transfected with Fcγ RIIA plasmid, 24 hrs later, cells were stimulated with 3OC12 HSL or left untreated and incubated with […] of the final Fc-QD solution at 25° C. for 2 min. Quantum dot-labeled cells were imaged in TIRF mode. The fluorescence was excited at 488 nm and gated by a band-pass filter (575-640, Carl Zeiss). The excitation power was about 2 mW measured after the objective. Movies of 400 frames were acquired for each sample at a full-frame rate of 17 Hz. Individual trajectories were constructed by Utrack written in Matlab. Diffusion coefficient and plot area were calculated by customized programs written with Matlab. For motion pattern determination by MSD-t analysis 5: linear, simple Brownian diffusion; open-up parabolic, directed diffusion; open-down parabolic, restricted diffusion; and near zero, stationary.

## CCCCCCCCCC(=O)CC(=O)N[C@H]1CCOC1=O [3OC12 HSL, N-(3-oxo-dodecanoyl) homoserine lactone]
[1]
  T cell activation measured by IL-2 release and CD69 expression: suppress
Caspases 8 and 3 [2]
  caspase 8 and 3 cleavage: cleaved in a dose and time-dependent manner
THP-1 cell line
  sensitivity to 3OC12 HSL: sensitive
ZAP70
  ZAP70 phosphorylation: minimally affected
[3]; domains with cholesterol and sphingolipids
  appearance of ordered lipid domains: clear dissolution of the elevated plains
[3]; mixture of DOPC and DPPG
  appearance of smaller domains unrelated to lipid rafts: minimally affected
Caspases 8 and 3 [4]
  caspase 8 and 3 cleavage: cleaved in a dose and time-dependent manner
Lipid binding assay
  retention by coated lipid components: only lipid components containing cholesterol, sphingomyelin and DOPC were able to efficiently retain
Fcγ RIIA
  Fcγ RIIA motion pattern: higher percentage of Fcγ RIIA belonged to the simple and directed motions
Fcγ RIIA; without 3OC12 HSL 0.1056
  Fcγ RIIA diffusion coefficient: 0.1564+/−0.006
Fcγ RIIA; without 3OC12 HSL 0.6467
  area covered by Fcγ RIIA motion tracks: 0.9310+/−0.045
